Experimental findings from ChEMBL document CHEMBL1122305, “Adriamycin analogues. Preparation and biological evaluation of some novel 14-thiaadriamycins” (1983) are described below.

The test system of experiment [1] is L1210. Put plainly: Percent increase in life span relative to untreated controls in murine L1210 leukemia infected B6D2F1J male mice at 30 mg/kg optimal dose. Format: functional. Conditions: Mus musculus.
Another experiment deals with CCRF-CEM. Description: In vitro growth inhibition against CCRF-CEM (human lymphoblastic leukemic) cell line. It counts as functional. Conditions: read-out: ID50 (the source's name).
In experiment [2] the test system is L1210. Put plainly: Percent increase in life span relative to untreated controls in murine L1210 leukemia infected B6D2F1J male mice at […] optimal dose. Format: functional, Mus musculus.
Experiment [3] has as its system L1210. Description: Percent increase in life span relative to untreated controls in murine L1210 leukemia infected B6D2F1J male mice at 10.13 mg/kg optimal dose. It counts as functional. As to conditions: Mus musculus.
Experiment [4] has as its system L1210. Description: Percent increase in life span relative to untreated controls in murine L1210 leukemia infected B6D2F1J male mice at 101.25 mg/kg optimal dose. It counts as functional. Conditions: Mus musculus.
Experiment [5] deals with L1210. Put plainly: Percent increase in life span relative to untreated controls in murine L1210 leukemia infected B6D2F1J male mice at 60 mg/kg optimal dose. It counts as functional. Conditions: Mus musculus.
In experiment [6] the test system is L1210. Put plainly: Percent increase in life span relative to untreated controls in murine L1210 leukemia infected B6D2F1J male mice at 50 mg/kg optimal dose. It counts as functional. As to conditions: Mus musculus.
Experiment [7] deals with L1210. Put plainly: Percent increase in life span relative to untreated controls in murine L1210 leukemia infected B6D2F1J male mice at 4 mg/kg optimal dose. Conditions: Mus musculus. Format: functional.

On to `CCOC(=O)CSCC(=O)[C@]1(O)Cc2c(O)c3c(c(O)c2[C@@H](OC2CC(N)C(O)C(C)O2)C1)C(=O)c1c(OC)cccc1C3=O` (stereo not given in full), for which, in the experiment on L1210 [1], the ILS at 30 mg/kg worked out at 50%. For the same compound, the IC50 in the experiment with CCRF-CEM turned out to be 230 nM.
The compound `CCOC(=O)CSCC(=O)[C@]1(O)Cc2c(O)c3c(c(O)c2[C@@H](OC2CC(NC(=O)C(F)(F)F)C(O)C(C)O2)C1)C(=O)c1c(OC)cccc1C3=O` (stereo not given in full) displayed an ILS with L1210 [2] of 0%. Further, in the experiment on CCRF-CEM, the IC50 turned out to be 5330 nM.
As for `COc1cccc2c1C(=O)c1c(O)c3c(c(O)c1C2=O)C[C@@](O)(C(=O)CSc1ccccc1)C[C@@H]3OC1CC(N)C(O)C(C)O1` (stereo not given in full), in the experiment on CCRF-CEM, the IC50 worked out at 870 nM. The ILS at 10.13 mg/kg in the experiment with L1210 [3] was 22%.
Compound `COc1cccc2c1C(=O)c1c(O)c3c(c(O)c1C2=O)C[C@@](O)(C(=O)CSc1ccccc1)C[C@@H]3OC1CC(NC(=O)C(F)(F)F)C(O)C(C)O1` (stereo not given in full) returned an ILS at 101.25 mg/kg with L1210 [4] of 10%. The IC50 with CCRF-CEM is greater than 13700 nM.
In the experiment with L1210 [5], `COc1cccc2c1C(=O)c1c(O)c3c(c(O)c1C2=O)C[C@@](O)(C(=O)C[Se]c1ccccc1)C[C@@H]3OC1CC(NC(=O)C(F)(F)F)C(O)C(C)O1` (stereo not given in full) came in with an ILS at 60 mg/kg of 66%. In addition, the IC50 in the experiment with CCRF-CEM amounted to 2800 nM.
Take `CCCCSCC(=O)[C@]1(O)Cc2c(O)c3c(c(O)c2[C@@H](OC2CC(NC(=O)C(F)(F)F)C(O)C(C)O2)C1)C(=O)c1c(OC)cccc1C3=O` (stereo not given in full): the ILS with L1210 [2] was determined as 0%. For the same compound, the IC50 in the experiment on CCRF-CEM amounted to 5620 nM.
In the experiment with L1210 [6], `CCCCC(=O)OCC(=O)[C@]1(O)Cc2c(O)c3c(c(O)c2[C@@H](OC2CC(NC(=O)C(F)(F)F)C(O)C(C)O2)C1)C(=O)c1c(OC)cccc1C3=O` (stereo not given in full) returned an ILS at 50 mg/kg greater than 455%. Also, the IC50 in the experiment with CCRF-CEM was 240 nM.
`CCCCCSCC(=O)[C@]1(O)Cc2c(O)c3c(c(O)c2[C@@H](OC2CC(NC(=O)C(F)(F)F)C(O)C(C)O2)C1)C(=O)c1c(OC)cccc1C3=O` (stereo not given in full) returned an ILS in the experiment on L1210 [2] of 10%. Besides, the IC50 in the experiment with CCRF-CEM was greater than 13800 nM.
`CCCCSCC(=O)[C@]1(O)Cc2c(O)c3c(c(O)c2[C@@H](OC2CC(N)C(O)C(C)O2)C1)C(=O)c1c(OC)cccc1C3=O` (stereo not given in full): in the experiment on CCRF-CEM, the IC50 was determined as 250 nM. The same compound registered an ILS at 10.13 mg/kg with L1210 [3] of 33%.
In the same order, the values of `CCCCCCCCCCCCSCC(=O)[C@]1(O)Cc2c(O)c3c(c(O)c2[C@@H](OC2CC(N)C(O)C(C)O2)C1)C(=O)c1c(OC)cccc1C3=O` (stereo not given in full) are 1440 nM and 11%.
As to `COc1cccc2c1C(=O)c1c(O)c3c(c(O)c1C2=O)C[C@@](O)(C(=O)C[Se]c1ccccc1)C[C@@H]3OC1CC(N)C(O)C(C)O1` (stereo not given in full), the IC50 in the experiment with CCRF-CEM was 400 nM.
For the compound `CCCCCCCCCCCCSCC(=O)[C@]1(O)Cc2c(O)c3c(c(O)c2[C@@H](OC2CC(NC(=O)C(F)(F)F)C(O)C(C)O2)C1)C(=O)c1c(OC)cccc1C3=O` (stereo not given in full), in the experiment on L1210 [2], the ILS turned out to be 0%. Further, in the experiment with CCRF-CEM, the IC50 was greater than 15000 nM.
In the experiment with L1210 [7], `COc1cccc2c1C(=O)c1c(O)c3c(c(O)c1C2=O)C[C@@](O)(C(=O)CO)C[C@@H]3O[C@H]1C[C@H](N)[C@H](O)[C@H](C)O1` [DOXORUBICIN] came in with an ILS at 4 mg/kg of 50%. Further, the IC50 with CCRF-CEM is 66 nM.
With `COc1cccc2c1C(=O)c1c(O)c3c(c(O)c1C2=O)C[C@@](O)(C(=O)CSCCCSCC(=O)[C@]1(O)Cc2c(O)c4c(c(O)c2[C@@H](OC2CC(N)C(O)C(C)O2)C1)C(=O)c1c(OC)cccc1C4=O)C[C@@H]3OC1CC(N)C(O)C(C)O1` (stereo not given in full), the IC50 in the experiment with CCRF-CEM was determined as 830 nM.
For `COc1cccc2c1C(=O)c1c(O)c3c(c(O)c1C2=O)C[C@@](O)(C(=O)CSCCCCCCCCCSCC(=O)[C@]1(O)Cc2c(O)c4c(c(O)c2[C@H](OC2CC(N)C(O)C(C)O2)C1)C(=O)c1c(OC)cccc1C4=O)C[C@@H]3OC1CC(N)C(O)C(C)O1` (stereo not given in full), in the experiment with CCRF-CEM, the IC50 was 1230 nM.
On to `COc1cccc2c1C(=O)c1c(O)c3c(c(O)c1C2=O)C[C@@](O)(C(=O)CSCCSCC(=O)[C@]1(O)Cc2c(O)c4c(c(O)c2[C@H](OC2CC(N)C(O)C(C)O2)C1)C(=O)c1c(OC)cccc1C4=O)C[C@@H]3OC1CC(N)C(O)C(C)O1` (stereo not given in full), for which, in the experiment with CCRF-CEM, the IC50 is 1060 nM.
As for `CCCCCSCC(=O)[C@]1(O)Cc2c(O)c3c(c(O)c2[C@@H](OC2CC(N)C(O)C(C)O2)C1)C(=O)c1c(OC)cccc1C3=O` (stereo not given in full), the IC50 in the experiment on CCRF-CEM worked out at 950 nM. Besides, the ILS at 10.13 mg/kg in the experiment on L1210 [3] amounted to 33%.

Broadly, the ILS is the gain in survival time of treated over control animals, in per cent.
